According to patent publication US20200029564A1, “NOVEL 5-SUBSTITUTED IMIDAZOLYLMETHYLOXIRANE DERIVATIVES” (Bayer CropScience Aktiengesellschaft, priority 2016, published 2020):

What was measured:
[1] = tested on: Uromyces appendiculatus; assay: In vivo preventive test on Uromyces appendiculatus (bean rust); conditions: 264 h, 500 ppm of active ingredient, preventive spray on young bean plants, evaluated 11 days after inoculation, read-out: efficacy
Protocol: (§1) Example D: In Vivo Preventive Test on Uromyces appendiculatus (Bean Rust) [table] The active ingredients are made soluble and homogenized in a mixture of Dimethyl sulfoxide/Acetone/Tween® 80 and then diluted in water to the desired concentration. The young plants of bean are treated by spraying the active ingredient prepared as described above. Control plants are treated only with an aqueous solution of Acetone/Dimethyl sulfoxide/Tween® 80. After 24 hours, the plants are contaminated by spraying the leaves with an aqueous suspension of Uromyces appendiculatus spores. The contaminated bean plants are incubated for 24 hours at 20° C. and at 100% relative humidity and then for 10 days at 20° C. and at 70-80% relative humidity. The test is evaluated 11 days after the inoculation. 0% means an efficacy which corresponds to that of the control plants while an efficacy of 100% means that no disease is observed.

[2] = LogP by HPLC on reversed phase columns (EEC directive 79/831 Annex V.A8); format: physicochemical; conditions: method [a]: LC-UV, acidic range, 0.1% formic acid in water and acetonitrile as eluent; for chromatographic logP: reversed phase HPLC column
Protocol: [table] If more than one Log P value is available within the same method, all the values are given and separated by “+”. Calibration was done with straight-chain alkan2-ones (with 3 to 16 carbon atoms) with known Log P values (measurement of Log P values using retention times with linear interpolation between successive alkanones). Lambda-max-values were determined using UV-spectra from 200 nm to 400 nm and the peak values of the chromatographic signals.

[3] = tested on: Sphaerotheca fuliginea; assay: In vivo preventive test on Sphaerotheca fuliginea (powdery mildew on cucurbits); conditions: Podosphaera fuliginea, 360 h; 500 ppm of active ingredient; preventive spray on young gherkin plants; evaluated 15 days after inoculation; read-out: efficacy
Protocol: Example C: In Vivo Preventive Test on Sphaerotheca fuliginea (Powdery Mildew on Cucurbits) [table] The active ingredients are made soluble and homogenized in a mixture of Dimethyl sulfoxide/Acetone/Tween® 80 and then diluted in water to the desired concentration. The young plants of gherkin are treated by spraying the active ingredient prepared as described above. Control plants are treated only with an aqueous solution of Acetone/Dimethyl sulfoxide/Tween® 80. After 24 hours, the plants are contaminated by spraying the leaves with an aqueous suspension of Sphaerotheca fuidiginea spores. The contaminated gherkin plants are incubated for 72 hours at 18° C. and at 100% relative humidity and then for 12 days at 20° C. and at 70-80% relative humidity. The test is evaluated 15 days after the inoculation. 0% means an efficacy which corresponds to that of the control plants while an efficacy of 100% means that no disease is observed.

[4] = tested on: Blumeria graminis fsp. hordei; assay: In vivo preventive Blumeria test (barley); conditions: 168 h, 500 ppm of active ingredient, preventive spray on young barley plants, evaluated 7 days after inoculation, read-out: efficacy
Protocol: Example F: In Vivo Preventive Blumeria Test (Barley) [table] To produce a suitable preparation of active compound, 1 part by weight of active compound or active compound combination is mixed with the stated amounts of solvent and emulsifier, and the concentrate is diluted with water to the desired concentration. To test for preventive activity, young plants are sprayed with the preparation of active compound or active compound combination at the stated rate of application. After the spray coating has been dried, the plants are dusted with spores of Blumeria graminis fsp. hordei. The plants are placed in the greenhouse at a temperature of approximately 18° C. and a relative atmospheric humidity of approximately 80% to promote the development of mildew pustules. The test is evaluated 7 days after the inoculation. 0% means an efficacy which corresponds to that of the untreated control, while an efficacy of 100% means that no disease is observed.

[5] = tested on: Septoria tritici; assay: In vivo preventive test on Septoria tritici (leaf spot on wheat); conditions: Zymoseptoria tritici, 576 h; 500 ppm of active ingredient; preventive spray on young wheat plants; evaluated 24 days after inoculation; read-out: efficacy
Protocol: Example B: In Vivo Preventive Test on Septoria tritici (Leaf Spot on Wheat) [table] The active ingredients are made soluble and homogenized in a mixture of Dimethyl sulfoxide/Acetone/Tween® 80 and then diluted in water to the desired concentration. The young plants of wheat are treated by spraying the active ingredient prepared as described above. Control plants are treated only with an aqueous solution of Acetone/Dimethyl sulfoxide/Tween® 80. After 24 hours, the plants are contaminated by spraying the leaves with an aqueous suspension of Septoria tritici spores. The contaminated wheat plants are incubated for 72 hours at 18° C. and at 100% relative humidity and then for 21 days at 20° C. and at 90% relative humidity. The test is evaluated 24 days after the inoculation. 0% means an efficacy which corresponds to that of the control plants while an efficacy of 100% means that no disease is observed.

[6] = tested on: Puccinia recondita; assay: In vivo preventive test on Puccinia recondita (brown rust on wheat); conditions: 264 h, 500 ppm of active ingredient, preventive spray on young wheat plants, evaluated 11 days after inoculation, read-out: efficacy
Protocol: as §1, with “A:” for “D:”, “Puccinia recondita (Brown Rust on Wheat)” for “Uromyces appendiculatus (Bean Rust)”, “wheat” for “bean”, “Puccinia recondita” for “Uromyces appendiculatus”

| Compound | chromatographic logP [2] | LogP [2] | pest or weed control at 500 ppm [1] [%] | pest or weed control at 500 ppm [3] [%] | pest or weed control at 500 ppm [4] [%] | pest or weed control at 500 ppm [5] [%] | pest or weed control at 500 ppm [6] [%] |
| --- | --- | --- | --- | --- | --- | --- | --- |
| N#Cc1cncn1C[C@]1(c2ccc(F)cc2)O[C@H]1c1ccccc1Cl (relative stereo) [I-03, trans 3-[[3-(2-chlorophenyl)-2-(4-fluorophenyl)oxiran-2-yl]methyl]imidazole-4-carbonitrile] | 3.33 | – | 90 to 100 | 90 to 100 | 90 to 100 | 90 to 100 | – |
| N#Cc1cncn1C[C@]1(c2ccc(F)cc2)O[C@@H]1c1ccccc1Cl (relative stereo) [I-04, cis 3-[[3-(2-chlorophenyl)-2-(4-fluorophenyl)oxiran-2-yl]methyl]imidazole-4-carbonitrile] | 2.98 | – | 80 to 89 | 90 to 100 | – | 80 to 89 | – |
| Fc1ccc(C2(Cn3cncc3Cl)OC2c2ccccc2Cl)cc1 (stereo not drawn) [I-01] | 3.19 | – | 90 to 100 | 90 to 100 | 90 to 100 | 90 to 100 | 90 to 100 |
| Fc1ccc(C2(Cn3cncc3F)OC2c2ccccc2Cl)cc1 (stereo not drawn) [I-02] | 2.62 | – | 90 to 100 | 90 to 100 | 90 to 100 | 90 to 100 | 90 to 100 |
| N#Cc1cncn1CC1(c2ccc(C(F)(F)F)cc2)OC1c1ccccc1Cl (stereo not drawn) [I-05] | 3.96 | – | 90 to 100 | 90 to 100 | 90 to 100 | 90 to 100 | 90 to 100 |
| N#Cc1cncn1CC1(c2ccc(Cl)cc2)OC1c1ccccc1Cl (stereo not drawn) [I-06] | 3.68 | – | 90 to 100 | 90 to 100 | 90 to 100 | 90 to 100 | 90 to 100 |
| N#Cc1cncn1CC1(c2ccc(OC(F)(F)F)cc2)OC1c1ccccc1Cl (stereo not drawn) [I-07] | 4.11 | – | 90 to 100 | 90 to 100 | 90 to 100 | 90 to 100 | 90 to 100 |
| N#Cc1cncn1CC1(c2ccc(Br)cc2)OC1c1ccccc1Cl (stereo not drawn) [I-08] | 3.85 | – | 90 to 100 | 90 to 100 | – | 90 to 100 | – |
| N#Cc1cncn1CC1(c2ccc(F)cc2F)OC1c1ccccc1Cl (stereo not drawn) [I-09] | 3.06 | – | 90 to 100 | 90 to 100 | – | 90 to 100 | – |
| N#Cc1cncn1CC1(c2ccc(Cl)cc2)OC1c1ccccc1F (stereo not drawn) [I-10] | 3.41 | – | 90 to 100 | 90 to 100 | 90 to 100 | 90 to 100 | 90 to 100 |
| N#Cc1cncn1CC1(c2ccc(Cl)cc2)OC1c1ccccc1Br (stereo not drawn) [I-11] | 3.83 | – | 90 to 100 | – | 80 to 89 | 90 to 100 | 90 to 100 |

Second part, led by results:

| chromatographic logP [2] | LogP [2] | Compound | pest or weed control at 500 ppm [1] [%] | pest or weed control at 500 ppm [3] [%] | pest or weed control at 500 ppm [4] [%] | pest or weed control at 500 ppm [5] [%] | pest or weed control at 500 ppm [6] [%] |
| --- | --- | --- | --- | --- | --- | --- | --- |
| 3.06 | – | N#Cc1cncn1CC1(c2ccc(F)cc2)OC1c1ccccc1F (stereo not drawn) [I-12] | 90 to 100 | 90 to 100 | 90 to 100 | 90 to 100 | 90 to 100 |
| 3.44 | – | N#Cc1cncn1CC1(c2ccc(F)cc2)OC1c1ccccc1Br (stereo not drawn) [I-13] | 90 to 100 | – | 90 to 100 | 90 to 100 | 90 to 100 |
| 2.66 | – | Fc1ccc(C2(Cn3cncc3F)OC2c2ccccc2Br)cc1 (stereo not drawn) [I-14] | 90 to 100 | 90 to 100 | 90 to 100 | 90 to 100 | – |
| 1.57 | – | Fc1ccc(C2(Cn3cncc3F)OC2c2cccnc2Cl)cc1 (stereo not drawn) [I-15] | – | 90 to 100 | – | – | – |
| 2.2 | – | N#Cc1cncn1CC1(c2ccc(F)cc2)OC1c1cccnc1Cl (stereo not drawn) [I-16] | – | 90 to 100 | – | – | – |
| – | 2.50 ^[a] | N#Cc1cncn1CC1(c2ccc(F)cc2)OC1c1cccnc1Cl (stereo not drawn) [I-17] | 90 to 100 | – | – | 90 to 100 | – |
| 2.86 | – | COc1ccc(C2(Cn3cncc3C#N)OC2c2ccccc2Cl)cn1 (stereo not drawn) [I-19] | 80 to 89 | 90 to 100 | – | 90 to 100 | 90 to 100 |
| 2.5 | – | N#Cc1cncn1CC1(c2ccc(F)cc2)OC1c1ccnc(Cl)c1 (stereo not drawn) [I-20] | 90 to 100 | 90 to 100 | – | 90 to 100 | 90 to 100 |
| 3.35 | – | N#Cc1cncn1CC1(c2ccc(F)cc2)OC1c1cccc(Cl)c1 (stereo not drawn) [I-21] | 90 to 100 | 90 to 100 | – | 80 to 89 | 90 to 100 |
| 3.26 | – | COc1ccc(C2(Cn3cncc3C#N)OC2c2ccccc2Cl)cc1 (stereo not drawn) [I-22] | 90 to 100 | 90 to 100 | – | 90 to 100 | 90 to 100 |
| 3.44 | – | N#Cc1cncn1CC1(c2ccc(F)cc2)OC1c1cccc(Br)c1 (stereo not drawn) [I-23] | 90 to 100 | 90 to 100 | – | 90 to 100 | 90 to 100 |
| 3.37 | – | N#Cc1cncn1CC1(c2ccc(F)cc2)OC1c1ccc(Cl)cc1 (stereo not drawn) [I-24] | 90 to 100 | 90 to 100 | – | 90 to 100 | 90 to 100 |
| 3.8 | – | N#Cc1cncn1CC1(c2ccc(Cl)cc2F)OC1c1ccccc1Cl (stereo not drawn) [I-25] | 90 to 100 | 90 to 100 | 90 to 100 | 90 to 100 | 90 to 100 |
| 3.71 | – | N#Cc1cncn1CC1(c2ccc(F)cc2Cl)OC1c1ccccc1Cl (stereo not drawn) [I-29] | 90 to 100 | 90 to 100 | 90 to 100 | 90 to 100 | 90 to 100 |
